Measurements reported in patent US20250235457A1, “METHODS AND COMPOSITIONS FOR TREATING CDKL5 DISORDER USING ALLOPURINOL” (priority 2024, published 2025).

How the values were obtained:
CDKL5-deficient mice [1] = test: Hind limb clasping test; assay type: in vivo; conditions: Het CDKL5-deficient mice before vs after treatment, 5 and 10 days oral (FIG. 9)
Experimental: The hind limb clasping test was performed to assess motor function and neurological impairments in CDKL5-deficient mouse models before and after treatment with allopurinol. […] Mice were suspended by their tails for a duration of 2 minutes, and hind limb retraction behavior (referred to as clasping) was recorded. Video recordings were analyzed to determine total clasping time during the test. Each mouse was evaluated using a standardized scoring system based on the severity of hind limb clasping behavior: • 0. No limb clasping observed. • 1.
Testing was conducted at baseline (pre-treatment) and at 5 and 10 days following oral administration of allopurinol. The hind limb clasping scores were averaged for each group, and the results were analyzed to assess changes in motor impairments following treatment.

[2] = tested on: patient with CDKL5 deficiency disorder (CDD); test: Off-label allopurinol treatment of a pediatric patient with CDD (case); assay type: in vivo, human
Description: CDD is a severe neurodevelopmental disorder characterized by treatment-resistant epilepsy, profound developmental delays, and significant motor impairments.
The patient presented with severe developmental delays since birth and had never met motor or speech milestones. […] The patient also experienced frequent, uncontrolled seizures despite being on a ketogenic diet and receiving physical, occupational, speech, and vision therapies. Their seizures were refractory to multiple anti-epileptic drugs (AEDs), including Keppra, Epidiolex, Soticlestat, Clonazepam, Sabril, Phenobarbital, and Oxcarbazepine.
Baseline assessments conducted prior to treatment initiation included a review of medical history, physical examination, laboratory tests, and functional evaluations.
Allopurinol was prescribed as an adjunct therapy to the patient's existing seizure management regimen without modifications to their ongoing AED treatments or dietary plan. The treatment protocol involved administering allopurinol at a dose of 100 mg per day, divided into two doses of 50 mg with lunch and 50 mg with dinner. The patient's progress was monitored over a 24-week period, unless adverse events necessitated an adjustment or discontinuation of the treatment. Caregivers maintained a daily diary to document seizure frequency, duration, and type, as well as changes in behavior, communication attempts, motor abilities, urine output, and general health.
Clinical assessments were conducted every four weeks, either virtually or in-person, to monitor safety and efficacy. Laboratory tests were performed every six weeks to evaluate uric acid levels, urinalysis, complete blood count (“CBC”), blood sugar levels, and other relevant indicators. EEG assessments were conducted at baseline, at eight-week intervals, and at the end of the study to evaluate changes in seizure activity and brain function. Regular evaluations by a pediatric neuro-ophthalmologist were included to assess visual and neurological health.
During the study, therapeutic interventions such as speech therapy, physical therapy, and the use of augmentative and alternative communication (AAC) devices were continued. Specific goals included improving functional communication through AAC, enhancing motor control, and increasing engagement with therapy activities. Progress in these areas was tracked alongside clinical outcomes to assess the comprehensive impact of allopurinol on the patient's quality of life.
At the time of treatment initiation, the patient weighed 18 kg. […] The end-of-study assessment included a final medical evaluation, EEG, laboratory tests, and a review of therapy outcomes to measure the safety and efficacy of allopurinol as a treatment for CDD.

CDKL2 = test: qPCR of CDKL2 expression in the treated patient; assay type: in vivo, human
[3] = tested on: pediatric patients diagnosed with CDKL5 disorder; test: Prospective open-label clinical trial in pediatric patients with CDKL5 disorder; assay type: in vivo, human
Experimental: For the clinical trial, a prospective, open-label study was conducted between Aug. 1, 2023, and May 1, 2024, to evaluate the efficacy of allopurinol in pediatric patients diagnosed with CDKL5 disorder. The trial enrolled eight patients, aged 2 to 10 years, with a confirmed diagnosis of CDKL5 disorder and ongoing epilepsy that was resistant to conventional anti-epileptic drugs. Patients were required to have a stable seizure regimen for at least four weeks prior to participation. Those with a history of severe allergic reactions to allopurinol or other contraindicating medical conditions were excluded from the study. All patients were treated with allopurinol as an adjunct therapy to their existing anti-epileptic drug regimen, with the starting dose set at 10 mg/kg/day, administered orally in divided doses (twice daily, BID). The dosage was adjusted based on individual tolerability, and all treatment was closely supervised by a pediatric neurologist specializing in seizure disorders. Seizure frequency and severity were assessed at baseline and then at 4-week intervals throughout the 9-month study period. The primary endpoint of the study was the reduction in the frequency of major motor seizures, which was assessed using patient diaries and caregiver reports. Secondary endpoints included the severity of seizures (measured by the Modified Rankin Scale), overall neurological improvement, and quality of life, evaluated using the CDKL5 Disorder Disease-Specific Quality of Life (CDKL5-QoL) questionnaire. Statistical analysis was performed using paired t-tests to compare seizure frequency data between baseline and post-treatment periods, with a significance level set at p<0.05.

CDKL5 Het female mice = test: Seizure monitoring (video and EEG) in CDKL5 Het female mice; assay type: in vivo; conditions: 30 mg/kg/day in drinking water, treated vs untreated controls
Description: A p-value of <0.05 was considered statistically significant.

[4] = tested on: CDKL2 and GluN2B subunits in the hippocampal and cortical regions; test: Histological / immunohistochemical analysis of brain tissue of CDKL5 Het mice; assay type: in vivo; conditions: treated animals, 30 mg/kg/day
Experimental: In addition to the clinical trial, a preclinical animal study was conducted using a mouse model of CDKL5 disorder (CDKL5 Het female mice). A total of eight mice were included in the study, with four receiving treatment and four serving as untreated controls. All mice were housed under standard laboratory conditions with a 12-hour light/dark cycle and ad libitum access to food and water. The treatment protocol involved the oral administration of allopurinol dissolved in drinking water at a target dose of 30 mg/kg/day. The solution was prepared in phosphate-buffered saline (PBS) with a concentration of 0.1 mg/mL allopurinol in a 1:10 solution of dimethyl sulfoxide (DMSO):PBS (pH 7.2). Control animals received an identical solution without allopurinol. Seizure activity was monitored daily throughout the study, with seizure severity and duration recorded using both video and electroencephalogram assessments. At the end of the study, brain tissue from both treated and untreated animals was collected for histological analysis, specifically to assess the expression of CDKL2 and GluN2B subunits in the hippocampal and cortical regions. Immunohistochemical staining was used to visualize the localization and abundance of these proteins. Data from the seizure monitoring were analyzed using an unpaired t-test, and histological data were quantified using image analysis software. […]

[5] = tested on: phosphorylation of key synaptic proteins, including EB2 (MAPRE2); test: Neuronal cultures derived from CDKL5-deficient models; assay type: cell-based
[6] = 1:10 solution of DMSO:PBS (pH 7.2); 'believed to be approximately'; cited from earlier work
CDKL5-deficient mice [7] = test: Marble burying test
[8] = tested on: EB2 (MAPRE2) phosphorylation at phospho-Serine 222; test: Western blot of EB2 phosphorylation in brain tissue of CDKL5-deficient mice; conditions: 10 days
[9] = 100 mg per day, 24-week study period

**Q.** What does the source list for `Oc1ncnc2[nH]ncc12` [allopurinol]?
**A.** hind limb clasping behavior (CDKL5-deficient mice [1]): significant reduction in hind limb clasping behavior; EEG background activity ([2]; 100 mg per day adjunct, with a reduction in epileptic discharges): marked improvement; adverse effects [2, 9]: No adverse effects were reported; tolerability [2, 9]: well tolerated; CDKL5 Severity Scale Part 3 (Caregiver Report) ([2]; 3 months after treatment, before treatment 1, lower desirable): 0; CDKL5 Severity Scale Part 6 (Motor Skills) ([2]; 3 months after treatment, before treatment 2, higher desirable): 4; CDKL5 Severity Scale Part 4 (Clinician Report) ([2]; 3 months after treatment, before treatment 25, lower desirable): 25; CDKL5 Severity Scale Part 2 (Seizure Activity) ([2]; 3 months after treatment, before treatment 29, lower desirable): 29; CDKL5 Severity Scale Part 1 (General Health) ([2]; 3 months after treatment, before treatment 32, lower desirable): 21; CDKL5 Severity Scale Total Score ([2]; 3 months after treatment, before treatment 104): 69; CDKL5 Severity Scale Part 5 (Behavioral Skills) ([2]; 3 months after treatment, before treatment −1, higher desirable): 8; seizure status ([2]; person, 100 mg per day adjunct, after 3 months): completely seizure-free; quality of life (observational) ([2]; qualitative observational data): reduced sleep disturbances, improved saliva control, and decreased caregiver burden; cognitive and motor functions ([2]; therapist and caregiver observation): notable gains in cognitive and motor functions; patient's CDKL2 expression level (CDKL2; control group mean 5.44307×10^−6 (±2.26749×10^−6)): 1.7356×10^−5 (±1.302×10^−6); increase in the expression of CDKL2 vs healthy donor controls (CDKL2; treated patient compared to healthy donor controls): 3 fold; patients demonstrating a decrease in seizure severity by at least one grade (Modified Rankin Scale) ([3]; 10 mg/kg/day): 75 % of patients; patients reporting improvements in sleep patterns, motor skills, and cognitive function (CDKL5-QoL) ([3]; 10 mg/kg/day): 87.5 % of patients; speech and motor delays ([3]; clinical trial conclusions): did not show marked improvements; mean reduction in major motor seizures ([3]; eight patients aged 2 to 10 years, 10 mg/kg/day oral BID adjunct, 9 months, baseline on average 12 times per week): 63.2%; reduction in seizure duration (CDKL5 Het female mice): 65%; reduction in seizure severity (CDKL5 Het female mice): 72.5%; CDKL2 expression in the hippocampal and cortical regions [4]: notable increase in CDKL2 expression; GluN2B subunit mislocalization [4]: partially corrected; phosphorylation of key synaptic proteins, including EB2 (MAPRE2) [5]: increased phosphorylation; solubility [6]: approximately 0.1 mg/ml; marble burying capacity (CDKL5-deficient mice [7]; Het mice treated vs untreated Het mice, 30 mg/kg/day oral (FIG. 8)): improvement in marble burying capacity; crossing of the blood brain barrier (CDKL5-deficient mice [7]; inferred from the behavioral findings in CDKL5-deficient mice): crosses the blood brain barrier; phosphorylated EB2 isoforms 1 and 2 at ps222 ([8]; Het female mice brain, 30 mg/kg/day, vs untreated controls, not statistically significant (FIG. 2)): trend towards increased phosphorylation; phosphorylated EB2 isoform 3 at ps222 ([8]; Het female mice brain, 30 mg/kg/day, did not reach statistical significance (FIG. 3)): trend toward increased phosphorylation; EB2 phosphorylation levels ([8]; KO male and Het female mice, 30 mg/kg/day in drinking water): increased EB2 phosphorylation levels
